From patent publication US20230067159A1, “ROR-GAMMA-T INHIBITOR, PREPARATION METHOD THEREOF AND USE THEREOF” (priority 2020, published 2023)

target: T1, RORγ (Homo sapiens, UniProt P51449); assay: Fluorescence resonance energy transfer (FRET) test, B-RORγ LBD / Biotin-SRC1; type: biochemical
T1 construct: The concentration of B-RORγ LBD was 40 nM
T1 sequence (P51449 269-508 limits assumed): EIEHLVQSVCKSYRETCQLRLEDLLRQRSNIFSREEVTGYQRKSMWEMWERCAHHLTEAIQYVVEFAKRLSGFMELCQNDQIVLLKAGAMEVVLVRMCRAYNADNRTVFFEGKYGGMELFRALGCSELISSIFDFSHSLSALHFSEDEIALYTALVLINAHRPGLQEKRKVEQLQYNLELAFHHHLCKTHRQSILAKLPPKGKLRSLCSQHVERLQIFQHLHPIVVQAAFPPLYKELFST
Protocol: Biological Example 1 Fluorescence Resonance Energy Transfer (FRET) Test
(1) Preparation of RORγ Test Buffer and 10 mM of DTT
100 mL of 1× Basic test buffer (HEPES (pH 7.4), 100 mM NaCl, 0.01% BSA) was prepared, and 154.25 mg of DTT was added. The mixture was well mixed.
(2) Preparation of Compound with Gradient Concentration
a. Standard compound was prepared: Standard compound was diluted with 100% DMSO to 2.5 mM, then diluted 3-fold with 11 serial dilutions to a final concentration of […];
b. Test compound was prepared referring to the standard compound.
(3) Preparation of 1× Protein Solution Mixture
(§1) a. Preparation of the desired amount of 2× B-RORγ LBD/SA-APC protein mixture: The concentration of B-RORγ LBD was 40 nM, and the concentration of SA-APC was 20 nM. They were mixed by gently inversion, and incubated at room temperature for 15 minutes. Then 400 nM of biotin was added. The mixture was mixed by gently inversion, and incubated at room temperature for 10 minutes;
as §1, with “b.” for “a.”, “Biotin-SRC1/SA-eu” for “B-RORγ LBD/SA-APC”, “Bioin-SRC1” for “B-RORγ LBD”, “SA-eu” for “SA-APC”, “200” for “400”
c. The protein mixtures prepared in step a and step b were mixed at a ratio of 1:1, and incubated at room temperature for 5 minutes;
d. 25 μL of the mixture from step c was added to the 384-well plate containing the test compound;
e. The mixture was centrifuged at 1000 rpm for one minute;
f. The mixture was incubated for 1 hour at room temperature.
(4) Data Collection and Calculation
After incubation at room temperature for 1 hour, the fluorescence values at 665 nm and 615 nm were measured with an EnVision plate reader, and the inhibition rate was calculated.
Inhibition rate %)=[(X−Min)/(Max−Min)]×100%
X is the fluorescence value ratio of “665/615” of the test compound; Min is the average value of “665/615” of the DMSO blank control; Max is the average value of “665/615” of the 10 μM SRC.

| Compound | IC50 |
| --- | --- |
| CCS(=O)(=O)c1ccc([C@H](CCO)NC(=O)c2ccc(N3CC(Oc4ccc(OC(F)F)cc4)C[C@H]3COC(F)F)cc2)cc1 (stereo in doubt) [Example 114, 4-((2S,4S)-2-((difluoromethoxy)methyl)-4-(4-(difluoromethoxy)phenoxy)pyrrolidin-1-yl)-N—((S)-1-(4-(ethylsulfonyl)phenyl)-3-hydroxypropyl)benzamide] | 2 nM |
| CCS(=O)(=O)c1ccc([C@H](CCO)NC(=O)c2ccc(N3CC(Oc4ccc(OC(F)(F)F)cc4)C[C@H]3COC(F)(F)F)cc2)cc1 (stereo in doubt) [Example 118, N—((S)-1-(4-(ethylsulfonyl)phenyl)-3-hydroxypropyl)-4-((2S,4S)-2-((trifluoromethoxy)methyl)-4-(4-(trifluoromethoxy)phenoxy)pyrrolidin-1-yl)benzamide] | 8 nM |
| CCS(=O)(=O)c1ccc(CC(=O)Nc2ccc(N3CCC(Cc4ccc(C(F)(F)F)cc4)C3)cc2)cc1 (stereo not drawn) [Example 1, 2-(4-(Ethylsulfonyl)phenyl)-N-(4-(3-(4-(trifluoromethyl)benzyl)pyrrolidin-1-yl)phenyl) acetamide] | 12 nM |
| CCS(=O)(=O)c1ccc(CNC(=O)c2ccc(N3CCC(Cc4ccc(C(F)(F)F)cc4)C3)cc2)cc1 (stereo not drawn) [Example 2] | 14 nM |
| CCS(=O)(=O)c1ccc(CC(=O)Nc2ccc(C3CN(Cc4ccc(C(F)(F)F)cc4)CC3C)cc2)cc1 (stereo not drawn) [Example 5, 2-(4-(Ethylsulfonyl)phenyl)-N-(4-(4-methyl-1-(4-(trifluoromethyl)benzyl)pyrrolidin-3-yl)phenyl)acetamide] | 47 nM |
| CCS(=O)(=O)c1ccc([C@H](CO)NC(=O)c2ccc(N3CCC(Cc4ccc(C(F)(F)F)cc4)C3)cc2)cc1 (stereo partly drawn) [Example 6, N—((R)-1-(4-(ethylsulfonyl)phenyl)-2-hydroxyethyl)-4-(3-(4-(trifluoromethyl)benzyl)pyrrolidin-1-yl)benzamide] | 9 nM |
| CCS(=O)(=O)c1ccc(CNC(=O)c2ccc(N3CC(Cc4ccc(C(F)(F)F)cc4)C[C@H]3COC)cc2)cc1 (stereo partly drawn) [Example 7, N-(4-(ethylsulfonyl)benzyl)-4-((2S)-2-(methoxymethyl)-4-(4-(trifluoromethyl)benzyl)pyrrolidin-1-yl)benzamide] | 8.5 nM |
| CCS(=O)(=O)c1ccc(CNC(=O)c2ccc(N3CCC(Oc4ccc(C(F)(F)F)cc4)C3)cc2)cc1 (stereo not drawn) [Example 9, N-(4-(ethylsulfonyl)benzyl)-4-(3-(4-(trifluoromethyl)phenoxy)pyrrolidin-1-yl)benzamide] | 11.9 nM |
| CCS(=O)(=O)c1ccc(CNC(=O)c2ccc(N3CCC(N(C)c4ccc(C(F)(F)F)cc4)C3)cc2)cc1 (stereo not drawn) [Example 10, N-(4-(ethylsulfonyl)benzyl)-4-(3-(methyl(4-(trifluoromethyl)phenyl)amino)pyrrolidin-1-yl) benzamide] | 23 nM |
| CCS(=O)(=O)c1ccc(CNC(=O)c2ccc(N3CCC(Nc4ccc(C(F)(F)F)cc4)C3)cc2)cc1 (stereo not drawn) [Example 11, N-(4-(ethylsulfonyl)benzyl)-4-(3-((4-(trifluoromethyl)phenyl)amino)pyrrolidin-1-yl)benzamide] | 33.8 nM |
| CCS(=O)(=O)c1ccc([C@H](CO)NC(=O)c2ccc(N3CCC(Oc4ccc(C(F)(F)F)cc4)C3)cc2)cc1 (stereo partly drawn) [Example 12, N—((R)-1-(4-(ethylsulfonyl)phenyl)-2-hydroxyethyl)-4-(3-(4-(trifluoromethyl)phenoxy)pyrrolidin-1-yl)benzamide] | 24 nM |
| CCS(=O)(=O)c1ccc([C@H](CO)NC(=O)c2ccc(N3CC[C@H](Oc4ccc(C(F)(F)F)cc4)C3)cc2)cc1 [Example 14, N—((R)-1-(4-(ethylsulfonyl)phenyl)-2-hydroxyethyl)-4-((S)-3-(4-(trifluoromethyl)phenoxy)pyrrolidin-1-yl)benzamide] | 20 nM |
| CCOC[C@@H]1CC(Oc2ccc(C(F)(F)F)cc2)CN1c1ccc(C(=O)NCc2ccc(S(=O)(=O)CC)cc2)cc1 (stereo partly drawn) [Example 19] | 18.6 nM |
| CCOC[C@@H]1CC(Oc2ccc(C(F)(F)F)cc2)CN1c1ccc(C(=O)N[C@@H](CO)c2ccc(S(=O)(=O)CC)cc2)cc1 (stereo partly drawn) [Example 20] | 14.1 nM |
| CCS(=O)(=O)c1ccc([C@H](CO)NC(=O)c2ccc(N3C[C@H](Oc4ccc(C(F)(F)F)cc4)C[C@H]3CF)cc2)cc1 [Example 24, N—((R)-1-(4-(ethylsulfonyl)phenyl)-2-hydroxyethyl)-4-((2S,4R)-2-(fluoromethyl)-4-(4-(trifluoromethyl)phenoxy)pyrrolidin-1-yl)benzamide] | 32.8 nM |
| CCS(=O)(=O)c1ccc(CNC(=O)c2ccc(N3C[C@H](Oc4ccc(C(F)(F)F)cc4)C[C@H]3COC)cc2)cc1 [Example 25, N-(4-(ethylsulfonyl)benzyl)-4-((2S,4R)-2-(methoxymethyl)-4-(4-(trifluoromethyl)phenoxy)pyrrolidin-1-yl)benzamide] | 20 nM |
| CCS(=O)(=O)c1ccc([C@H](CO)NC(=O)c2ccc(N3C[C@H](Oc4ccc(C(F)(F)F)cc4)C[C@H]3COC)cc2)cc1 [Example 26, N—((R)-1-(4-(ethylsulfonyl)phenyl)-2-hydroxyethyl)-4-((2S,4R)-2-(methoxymethyl)-4-(4-(trifluoromethyl)phenoxy)pyrrolidin-1-yl)benzamide] | 10 nM |
| CCCOC[C@@H]1C[C@@H](Oc2ccc(C(F)(F)F)cc2)CN1c1ccc(C(=O)N[C@@H](CO)c2ccc(S(=O)(=O)CC)cc2)cc1 [Example 27, N—((R)-1-(4-(ethylsulfonyl)phenyl)-2-hydroxyethyl)-4-((2S,4R)-2-(propoxymethyl)-4-(4-(trifluoromethyl)phenoxy)pyrrolidin-1-yl)benzamide] | 20.8 nM |
| CCCCOC[C@@H]1C[C@@H](Oc2ccc(C(F)(F)F)cc2)CN1c1ccc(C(=O)N[C@@H](CO)c2ccc(S(=O)(=O)CC)cc2)cc1 [Example 28] | 13.3 nM |
| CCS(=O)(=O)c1ccc([C@H](CO)NC(=O)c2ccc(N3C[C@H](Oc4ccc(C(F)(F)F)cc4)C[C@H]3COCCF)cc2)cc1 [Example 29, N—((R)-1-(4-(ethylsulfonyl)phenyl)-2-hydroxyethyl)-4-((2S,4R)-2-((2-fluoroethoxy)methyl)-4-(4-(trifluoromethyl)phenoxy)pyrrolidin-1-yl)benzamide] | 10.4 nM |
| CCS(=O)(=O)c1ccc([C@H](CO)NC(=O)c2ccc(N3C[C@H](Oc4ccc(C(F)(F)F)cc4)C[C@H]3COCC(F)(F)F)cc2)cc1 [Example 30, N—((R)-1-(4-(ethylsulfonyl)phenyl)-2-hydroxyethyl)-4-((2S,4R)-2-((2,2,2-trifluoroethoxy)methyl)-4-(4-(trifluoromethyl)phenoxy)pyrrolidin-1-yl)benzamide] | 17.1 nM |
| CCS(=O)(=O)c1ccc([C@H](CO)NC(=O)c2ccc(N3C[C@H](Oc4ccc(C(F)(F)F)cc4)C[C@H]3COCC3CC3)cc2)cc1 [Example 31] | 17 nM |
| CCS(=O)(=O)c1ccc([C@H](CO)NC(=O)c2ccc(N3C[C@H](Oc4ccc(C(F)(F)F)cc4)C[C@H]3COCCC#N)cc2)cc1 [Example 32] | 19 nM |
| CCS(=O)(=O)c1ccc([C@H](CO)NC(=O)c2ccc(N3C[C@H](Oc4ccc(C(F)(F)F)cc4)C[C@H]3CO[C@H]3CCOC3)cc2)cc1 [Example 33, N—((R)-1-(4-(ethylsulfonyl)phenyl)-2-hydroxyethyl)-4-((2S,4R)-2-((((S)-tetrahydrofuran-3-yl)oxy)methyl)-4-(4-(trifluoromethyl)phenoxy)pyrrolidin-1-yl)benzamide] | 132 nM |
| CCS(=O)(=O)c1ccc([C@H](CO)NC(=O)c2ccc(N3C[C@H](Oc4ccc(C(F)(F)F)cc4)C[C@H]3COC3CCOCC3)cc2)cc1 [Example 34, N—((R)-1-(4-(ethylsulfonyl)phenyl)-2-hydroxyethyl)-4-((2S,4R)-2-(((tetrahydro-2H-pyran-4-yl)oxy)methyl)-4-(4-(trifluoromethyl)phenoxy)pyrrolidin-1-yl)benzamide] | 133 nM |
| CCS(=O)(=O)c1ccc([C@H](CO)NC(=O)c2ccc(N3C[C@H](Oc4ccc(C(F)(F)F)cc4)C[C@H]3CN3CCOC[C@@H]3C)cc2)cc1 [Example 35, N—((R)-1-(4-(ethylsulfonyl)phenyl)-2-hydroxyethyl)-4-((2S,4R)-2-(((S)-3-methylmorpholinyl)methyl)-4-(4-(trifluoromethyl)phenoxy)pyrrolidin-1-yl)benzamide] | 135 nM |
| CCS(=O)(=O)c1ccc([C@H](CO)NC(=O)c2ccc(N3C[C@H](Oc4ccc(C(F)(F)F)cc4)C[C@H]3COC(F)F)cc2)cc1 [Example 40] | 25 nM |
